What all share (test): DTP human tumour cell line panel, 48 h
Assay [1] has as its system EKVX NSCLC.
The test system of assay [2] is UACC-62 melanoma.
Assay [3] concerns T-47D breast.
Assay [4] concerns SNB-19 CNS.
Assay [5] deals with OVCAR-8 ovarian.
Assay [6] has as its system UACC-257 melanoma.
Assay [7] relates to CCRF-CEM leukemia.
Assay [8] has as its system SK-MEL-28 melanoma.
Assay [9] relates to HOP-62 NSCLC.
Assay [10] has as its system SK-OV-3 ovarian.
In assay [11] the test system is HCC-2998 colon.

Several values for one entry are separate records, joined by “and”; a condition that tells them apart may be missing. Equal entries are not always repeated.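 Step 1: Grow cells in 96-well plates. Step 2: Expose to compound for 48 hours at 5 concentrations. Step 3: Interpolate endpoints linearly; if unreached, use highest concentration. GI50 is the concentration that inhibits growth by half. TGI: concentration producing complete growth inhibition.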

Consider `COc1nc(=O)n(C2CC(N=[N+]=[N-])C(CO)O2)cc1C` (stereo not drawn), for which the TGI in [1], in [2], in [3], in assay [4], in assay [5] and in assay [6] was more than 100 µM in each case. The TGI in assay [7], in assay [8] and in [9] was more than 100 µM in each case.

Turning to `C#CCOC(=O)c1ccccc1OC(C)=O`, the TGI in assay [1], in assay [2], in assay [3], in [4], in assay [10] and in assay [5] was more than 100 µM in each case. Moreover, the total growth inhibition concentration (TGI) in [6], in assay [7] and in assay [9] was more than 100 µM in each case.

With `CC12ON=C(c3ccccc3)N1C=CN1C(c3ccccc3)=NOC12` (stereo not drawn), the concentration for total growth inhibition (TGI) in assay [1], in assay [2], in assay [4], in assay [10], in assay [5] and in [6] was more than 100 µM throughout. Further, the TGI in assay [9] and in assay [11] was more than 100 µM each time.

Consider `CC(=O)Oc1c(OC(C)=O)c(-c2ccc(O)c(O)c2)c(O)c(O)c1-c1ccc(O)cc1`, for which the TGI (usually the concentration at which net growth stops) in assay [1] is more than 100 µM; in [2], 45.4 µM and 75.5 µM; in assay [4], more than 100 µM; in assay [10], more than 100 µM; in assay [5] it was more than 100 µM; in assay [6] it was more than 100 µM. For the same molecule, the concentration for total growth inhibition (TGI) was 67.8 µM and > 100 µM in [7]; more than 100 µM in assay [8]; more than 100 µM in assay [9]; more than 100 µM in assay [11]. Also, the results for the GI50 in assay [2] and in [7] were 21.7 µM and 24.5 µM, respectively.

Regarding `COc1cc2c(cc1OC)C(Cl)C(c1cc(OC)c(OC)c(OC)c1)=C2Cl` (stereo not drawn), the TGI came to 79.4 µM in [1]; 28.9 µM in assay [2]; 37.2 µM in [4]; 56.2 µM in [10]; 48.7 µM in assay [5]; 40.7 µM in assay [7]. The TGI in [8] came to 31.9 µM.

Consider `COCN1C(=O)[C@@H]2CCCN2C(=O)c2cc([N+](=O)[O-])ccc21`, for which the TGI in assay [1], in assay [2], in [3], in assay [4], in assay [10] and in assay [5] was more than 100 µM each time. The concentration for total growth inhibition (TGI) in assay [6], in assay [8] and in assay [9] was more than 100 µM each time.

On to `CSCCC(NC(c1ccccc1)c1ccccc1)[P+](=O)O` (stereo not drawn), for which the TGI in assay [1], in assay [2], in assay [3], in assay [4], in assay [10] and in assay [5] was more than 100 µM in each case. For the same molecule, the total growth inhibition concentration (TGI) in assay [6], in assay [7], in assay [8] and in [9] was more than 100 µM throughout.

On to `CC1OC(=O)c2ccccc2NC1=O` (stereo not drawn), for which the TGI in assay [1], in assay [2], in assay [4], in assay [10], in assay [5] and in assay [6] was more than 100 µM throughout. For the same molecule, the TGI in assay [7], in assay [8] and in assay [9] was more than 100 µM in each case.

On to `CSC(=NCCN=C(NS(=O)(=O)c1ccc(Cl)cc1)SC)NS(=O)(=O)c1ccc(Cl)cc1`, for which the TGI in assay [1] was more than 100 µM; in assay [2], more than 100 µM; in [4] it was more than 100 µM; in [10], 59.1 µM; in assay [5] it was more than 100 µM; in assay [6], more than 100 µM. In addition, the total growth inhibition concentration (TGI) is more than 100 µM in [7], more than 100 µM in assay [8], 87.8 µM in [9] and more than 100 µM in assay [11].

Regarding `Cc1ccc2[nH]c3c(C)c4ccncc4c(C)c3c2c1`, the TGI was determined as 2.5 µM in [1]; 3.26 µM in [2]; 2.62 µM in [4]; 4.38 µM in assay [10]; 2.25 µM in assay [5]; 2.94 µM in assay [6]. Also, the TGI in assay [7] was found to be 3.74 µM; in assay [8], 3.47 µM; in assay [9], 3.24 µM; in assay [11] it was 2.87 µM.

Turning to `NNC(=O)c1n[nH]nc1SSc1n[nH]nc1C(=O)NN`, the TGI in assay [1], in assay [2], in assay [4], in assay [10], in assay [5] and in [6] was more than 100 µM throughout. In addition, the concentration for total growth inhibition (TGI) in assay [7], in [8], in assay [9] and in [11] was more than 100 µM each time.

For `C=C(Cl)C(Cl)(CBr)CCC(Cl)C(C)(C)Cl` (stereo not drawn), the TGI in assay [1] came out at 20.9 µM; in assay [4] it was 7 µM; in assay [10], 70.8 µM; in [5], 13 µM; in assay [6], 3.79 µM; in assay [7] it was 29.2 µM. Besides, the TGI in assay [8] was found to be 3.8 µM; in assay [9] it was 4.04 µM; in assay [11], 16.4 µM.

On to `N#Cc1c(-c2ccc(Cl)cc2)c(C#N)c(=O)n(NS(=O)(=O)c2ccccc2)c1-c1ccccc1`, for which the total growth inhibition concentration (TGI) in [2], in assay [4], in assay [10], in [6], in [7] and in assay [8] was more than 25 µM in each case. Besides, the concentration for total growth inhibition (TGI) in assay [9] and in assay [11] was more than 25 µM in each case.

For `CC(C)(C)OC(=O)NC(Cc1ccc([N+](=O)[O-])cc1)C(=O)NC(CCCCNC(=O)OCc1ccccc1)C(=O)ON1C(=O)CCC1=O` (stereo not drawn), the TGI in assay [1], in [2], in assay [4], in [10], in assay [5] and in assay [8] was more than 100 µM each time. In addition, the concentration for total growth inhibition (TGI) in [9] is more than 100 µM; in assay [11], 79.4 µM.

(Values after PubChem BioAssay (NCI).)
